Key:
Test in all cases: NCI-60 screening, one-dose (10 µM) and five-dose, SRB
A549/ATCC = format: cell-based, human
SF-268 = format: cell-based, human
NCI-H226 = format: cell-based, human
CAKI-1 = format: cell-based
NCI-H460 = format: cell-based, human; conditions: five-dose, NCI-H460
U251 = format: cell-based, human
NCI-H322M = format: cell-based, human
MCF7 = format: cell-based, human
HOP-62 = format: cell-based, human
LOX IMVI = format: cell-based, human; conditions: five-dose
SN12C = format: cell-based, human
MDA-MB-468 = format: cell-based, human; conditions: Homo sapiens
Description: Control cells Test cells FLD
available usually at NCI library.
An aliquot of frozen drug concentrate is […]

MDA-MB231/ATCC = format: cell-based
SK-MEL-28 = format: cell-based, human
COLO 205 = format: cell-based, human; conditions: Homo sapiens
[1] = Homo sapiens, five-dose, read-out: LC50 (the source's name)
[2] = Homo sapiens, five-dose, SF-268
[3] = Homo sapiens, five-dose, NCI-H226
[4] = Homo sapiens, five-dose, CAKI-1
[5] = Homo sapiens, read-out: LC50 (the source's name)
[6] = Homo sapiens, U-251, five-dose, U251
[7] = Homo sapiens, five-dose, HOP-62
[8] = Homo sapiens, five-dose, SK-MEL-28

Cc1nc(SCC(=O)N2CCN(c3cc4c(cc3F)c(=O)c(C(=O)O)cn4C3CC3)CC2)sc1C(=O)/C=C/c1cccc(F)c1 [Compound 4d, (E)-1-Cyclopropyl-6-fluoro-7-(4-(2-((5-(3-(3-fluorophenyl)acryloyl)-4-methylthiazol-2-yl)thio)acetyl)piperazin-1-yl)-4-oxo-1,4-dihydroquinoline-3-carboxylic Acid]
activity at 10 µM (A549/ATCC; Homo sapiens, 10 μM, Non-Small-Cell Lung Cancer, read-out: Growth percentage): 65.8%
GI50 (A549/ATCC; Homo sapiens, five-dose): > 100 µM
IC50 (A549/ATCC; Homo sapiens, five-dose): > 100 µM
CC50 (A549/ATCC; [1]): > 100 µM
TGI (A549/ATCC; five-dose): 7.94 µM
activity at 10 µM (SF-268; Homo sapiens, 10 μM, SF-268, CNS Cancer, read-out: Growth percentage): 25.7%
GI50 (SF-268; [2]): 27.5 µM
IC50 (SF-268; [2]): > 100 µM
CC50 (SF-268; Homo sapiens, five-dose, SF-268, read-out: LC50 (the source's name)): > 100 µM
TGI (SF-268; five-dose, SF-268): 100.0 µM
activity at 10 µM (NCI-H226; Homo sapiens, 10 μM, NCI-H226, Non-Small-Cell Lung Cancer, read-out: Growth percentage): 70.9%
GI50 (NCI-H226; [3]): > 100 µM
IC50 (NCI-H226; [3]): > 100 µM
LC50 (concentration killing 50% of cells) (NCI-H226; [3]): > 100 µM
TGI (NCI-H226; five-dose, NCI-H226): 100.0 µM
activity at 10 µM (CAKI-1; Homo sapiens, 10 μM, CAKI-1, Renal Cancer, read-out: Growth percentage): 79.8%
GI50 (CAKI-1; [4]): > 100 µM
IC50 (CAKI-1; [4]): > 100 µM
CC50 (CAKI-1; Homo sapiens, five-dose, CAKI-1, read-out: LC50 (the source's name)): > 100 µM
TGI (CAKI-1; five-dose, CAKI-1): 100.0 µM
GI50 (NCI-H460; Homo sapiens): > 100 µM
IC50 (NCI-H460; Homo sapiens): > 100 µM
CC50 (NCI-H460; [5]): > 100 µM
TGI (NCI-H460): 100.0 µM
activity at 10 µM (U251; Homo sapiens, U-251, 10 μM, U251, CNS Cancer, read-out: Growth percentage): -7.6%
GI50 (U251; [6]): > 100 µM
IC50 (U251; [6]): > 100 µM
CC50 (U251; Homo sapiens, U-251, five-dose, U251, read-out: LC50 (the source's name)): > 100 µM
TGI (U251; five-dose, U251): 100.0 µM
Growth percentage (NCI-H322M; 10 μM, Non-Small-Cell Lung Cancer): 95.7%
GI50 (NCI-H322M; Homo sapiens, five-dose): > 100 µM
IC50 (NCI-H322M; Homo sapiens, five-dose): > 100 µM
LC50 (NCI-H322M; Homo sapiens, five-dose): > 100 µM
TGI (NCI-H322M; five-dose): 100.0 µM
activity at 10 µM (MCF7; Homo sapiens, MCF7, 10 μM, MCF7, Breast Cancer, read-out: Growth percentage): -57.6%
GI50 (MCF7; Homo sapiens, five-dose, MCF7): 0.49 µM
IC50 (MCF7; Homo sapiens, five-dose, MCF7): 0.69 µM
CC50 (MCF7; Homo sapiens, five-dose, MCF7, read-out: LC50 (the source's name)): > 100 µM
TGI (MCF7; five-dose, MCF7): 100.0 µM
activity at 10 µM (HOP-62; Homo sapiens, HOP-62, 10 μM, HOP-62, Non-Small-Cell Lung Cancer, read-out: Growth percentage): -55.3%
GI50 (HOP-62; [7]): 7.4 µM
IC50 (HOP-62; [7]): 72.4 µM
CC50 (HOP-62; Homo sapiens, five-dose, HOP-62, read-out: LC50 (the source's name)): > 100 µM
TGI (HOP-62; five-dose, HOP-62): 100.0 µM
GI50 (LOX IMVI; Homo sapiens): 2.8 µM
IC50 (LOX IMVI; Homo sapiens): 4.1 µM
CC50 (LOX IMVI; [5]): > 100 µM
TGI (LOX IMVI): 100.0 µM
activity at 10 µM (SN12C; Homo sapiens, 10 μM, Renal Cancer, read-out: Growth percentage): 27.7%
GI50 (SN12C; Homo sapiens, five-dose): > 100 µM
IC50 (SN12C; Homo sapiens, five-dose): > 100 µM
CC50 (SN12C; [1]): > 100 µM
TGI (SN12C; five-dose): 100.0 µM
activity at 10 µM (MDA-MB-468; MDA-MB-468, 10 μM, MDA-MB-468, Breast Cancer, read-out: Growth percentage): -11.1%
GI50 (MDA-MB-468; five-dose, MDA-MB-468): 4.1 µM
IC50 (MDA-MB-468; five-dose, MDA-MB-468): > 100 µM
CC50 (MDA-MB-468; five-dose, MDA-MB-468, read-out: LC50 (the source's name)): > 100 µM
GI50 (MDA-MB231/ATCC; Homo sapiens, MDA-MB-231): > 100 µM
IC50 (MDA-MB231/ATCC; Homo sapiens, MDA-MB-231): > 100 µM
CC50 (MDA-MB231/ATCC; Homo sapiens, five-dose, MDA-MB-231/ATCC, read-out: LC50 (the source's name)): > 100 µM
TGI (MDA-MB231/ATCC; five-dose, MDA-MB-231/ATCC): 100.0 µM
activity at 10 µM (SK-MEL-28; Homo sapiens, 10 μM, SK-MEL-28, Melanoma, read-out: Growth percentage): 77.5%
GI50 (SK-MEL-28; [8]): > 100 µM
IC50 (SK-MEL-28; [8]): > 100 µM
CC50 (SK-MEL-28; Homo sapiens, five-dose, SK-MEL-28, read-out: LC50 (the source's name)): > 100 µM
TGI (SK-MEL-28; five-dose, SK-MEL-28): 100.0 µM
activity at 10 µM (COLO 205; 10 μM, COLO 205, Colon Cancer, read-out: Growth percentage): 102%
GI50 (COLO 205; five-dose, COLO 205): 4.9 µM
IC50 (COLO 205; five-dose, COLO 205): 9.3 µM
CC50 (COLO 205; five-dose, COLO 205, read-out: LC50 (the source's name)): > 100 µM

From article PMC12655637, “Design, Synthesis, and Mechanistic Study of Novel Ciprofloxacin/Thiazole Chalcone Hybrids as Potential Anticancer Agents” (Pharmaceuticals, 2025)
